{
  "source": "patent US20250170053A1",
  "about": "“LONG-LASTING RESORBABLE SUBCUTANEOUS IMPLANT WITH PROLONGED RELEASE OF PRE-CONCENTRATED PHARMACOLOGICALLY ACTIVE SUBSTANCE IN A POLYMER FOR THE ADJUVANT TREATMENT OF EPILEPSY, CHRONIC PAIN AND ANXIETY, AND METHOD” (priority 2022, published 2025)",
  "origin": "cited, not measured here",
  "key": {"[1]": {"test_system": "patients with treatment-resistant epilepsy", "settings": "2 to 50 mg/kg/day oral CBD, twelve weeks"}, "rodents": {"test_system": "rodents", "settings": "systemic administration"}, "[2]": {"test_system": "healthy volunteers and patients with anxiety disorders", "settings": "inverted U-shaped dose-response curve in humans"}},
  "data": [
    {"smiles": "C=C(C)[C@@H]1CCC(C)=C[C@H]1c1c(O)cc(CCCCC)cc1O", "note": "[CBD, cannabidiol]", "values": [
      {"measurement": "individuals who discontinued treatment due to some adverse event", "setting": "[1]", "result": 3, "unit": "%"},
      {"measurement": "safety and tolerability of the drug", "setting": "[1]", "result": "acceptable"},
      {"measurement": "average reduction in seizure frequency", "setting": "[1]; adjunctive therapy, patients aged one to thirty years", "result": 36.5, "unit": "%"},
      {"measurement": "effect in the elevated plus-maze test", "setting": "rodents", "result": "antianxiety effects"},
      {"measurement": "anxiolytic activity", "setting": "[2]", "result": "significant anxiolytic activity"}
    ]}
  ]
}
